Test results published in ChEMBL document CHEMBL1155574, “Hemolytic polar steroidal constituents of the starfish Aphelasterias japonica” (J Nat Prod, 2000).

Assay: Toxicity against mouse erythrocytes assessed as hemolytic activity
Format: cell-based, Erythrocyte
Settings: read-out: ED50 (the source's name)

Compared with `CC(=O)[C@H]1CC[C@H]2[C@@H]3C[C@H](O)[C@H]4C[C@@H](OS(=O)(=O)O)CC[C@]4(C)C3=CC[C@]12C`, `CC(=O)[C@H]1CC[C@H]2[C@@H]3C[C@H](O[C@H]4O[C@@H](C)[C@H](O)[C@@H](O)[C@@H]4O)[C@H]4C[C@@H](OS(=O)(=O)O)CC[C@]4(C)C3=CC[C@]12C` [FORBESIDE E3] is lower in HC50: > 500 µM for the first, 330 µM for the second.

Going from `CC(C)CC(=O)C[C@](C)(O)[C@H]1CC[C@H]2[C@@H]3C[C@H](O)[C@H]4C[C@@H](OS(=O)(=O)O)CC[C@]4(C)C3=CC[C@@]21C` [3-O-SULFOTHORNASTEROL A] to `CC(C)[C@H](O)C(=O)C[C@@H](C)[C@H]1CC[C@H]2[C@@H]3C[C@H](O)[C@H]4C[C@@H](OS(=O)(=O)O)CC[C@]4(C)C3=CC[C@]12C` [APHELAKETOTRIOL], the HC50 falls from 110 µM to 40 µM (2.8-fold).

`CC(=O)[C@H]1CC[C@H]2[C@@H]3C[C@H](O[C@H]4O[C@@H](C)[C@H](OS(=O)(=O)O)[C@@H](O)[C@@H]4O)[C@H]4C[C@@H](OS(=O)(=O)O)CC[C@]4(C)C3=CC[C@]12C` [CHELIFEROSIDE L1] and `CC(C)[C@H](O)C(=O)C[C@@H](C)[C@H]1CC[C@H]2[C@@H]3C[C@H](O[C@H]4O[C@@H](C)[C@H](OS(=O)(=O)O)[C@@H](O)[C@@H]4O)[C@H]4C[C@@H](OS(=O)(=O)O)CC[C@]4(C)C3=CC[C@]12C` [APHELASTEROSIDE C] are within 1.5-fold of each other in HC50: 175 µM for the first, 190 µM for the second.
